From patent US20250339569A1, “CARBONIC ANHYDRASE IX LIGANDS” (priority 2021, published 2025) come the findings set out here.

Structures are written as SMILES. Like-named read-outs stand apart in the source and are kept apart here. Starred links: 1 amine or outer side, 2 acyl side, 3 side chain; linkers in the order of their positions; H or OH if unused. Positions of bridges follow the written chain, without caps; N, C: chain ends. Non-standard residues stand in square brackets, D forms with d. Residues, ends and D or L forms follow the SMILES beside them. *: point of attachment. Phe(3-NHCO(CH2)3SO2NH2) = N[C@@H](Cc1cccc(NC(=O)CCCS(N)(=O)=O)c1)C(=O)O; DOTA = O=C(O)CN1CCN(CC(=O)O)CCN(CC(=O)*)CCN(CC(=O)O)CC1; mXylylene = c1cc(C[*:1])cc(C[*:2])c1; X2 = O=C(CN1CCC(N[*:1])CC1)[*:2]; Dap = NC[C@H](N)C(=O)O

For data set [1] the following is noted: human, plasma.
For data set [2] the following is noted: mouse, plasma, 24 h.
For a further data set, the target named is T1, mouse CAIX (Mus musculus, UniProt Q8VHB5).
T1 construct: host or cells: CHO-VGT / CHO cells
Nature of the data set: Radioligand binding assay, 111In-labeled compounds, CHO-VGT cells with mouse CAIX. As to conditions: 111In-labeled compound, Mouse CAIX, 8 h at 37°C; read-out: pKD category (activity) (converted). As for the experimental part: (§1) In order to assess the affinity of ^111In-labeled compounds to CAIX of different species, a radioligand binding assay was established.
(§2) CHO-VGT cells were transfected with the human, dog, and mouse CAIX (InSCREENex GmbH) and cultured in Ham's F-12 medium (Sigma-Aldrich #N4888) supplemented with 10% fetal bovine serum (FCS), 2 mM L-glutamine, 100 U/mL Penicillin, and 0.1 mg/mL streptomycin. Cells were detached with Accutase (Biolegend #423201) and counted using a particle counter (CASY Model TT; Scharfe Systems, Germany). Cell concentrations were adjusted to 3×10^5 mL^−1, and 1.000 μL of the suspension per well were dispensed into flat-clear-bottom 24 well plates.
(§3) Approximately 24 hours after re-seeding, the medium was aspirated and the cells were washed once with 1000 μL assay medium (Ham's medium without additives). To determine total binding, 700 μL of assay medium and 100 μL of the radioligand dilutions were added to the wells in triplicates. To determine non-specific binding, 600 μL of binding medium, 100 μL of the radioligand dilutions and 100 μL of a blocking solution containing 8 μM non-labeled compound were added to the wells in triplicates. At the end of incubation time (8 h at 37° C.), cells were washed and subsequently harvested in 300 μL RIPA buffer (Thermo Scientific #89901) containing Protease Inhibitor Cocktail Set I (Calbiochem #539131). Radioactivity of the cell lysate of each well was counted using a gamma counter (1470 Wizard, PerkinElmer, USA). An aliquot of each radioligand dilution was included in the gamma counter measurements to allow for determination of their actual concentrations via their known specific activity.

The next data set addresses T2, CAXII (hCAXII-bio) (Homo sapiens, UniProt O43570).
T2 construct: purchased SinoBliological (Sino Biological) 10617-H08H
Nature of the data set: SPR selectivity assay with biotinylated CAXII. The format is binding. As to conditions: SPR, biotinylated CAXII; read-out: pKD category (affinity) CAXII (converted). As to the method:
(§4) In order to test selectivity of CAIX-binding peptides toward CAIV (SinoBliological, Cat #10472-1H081H), CAXII (SinoBliological, Cat #10617-H08H or CAXIV (SinoBliological, Cat #10458-H08H), SPR assays were performed analog to the assay described above but with a different target capture procedure. For immobilization, the carbonic anhydrases were biotinylated and capture on the SPR chip using the Biotin CAPture Kit (cytiva) according to the manufacturer instructions using HBSTE, 0.1% as Running Buffer.
(§5) Table 13 describes the protocol steps for biotinylated target capturing and assessment of the binding kinetics.

Another data set deals with dog CAIX. The data set is described as follows: Radioligand binding assay, 111In-labeled compounds, CHO-VGT cells with dog CAIX. As to conditions: 111In-labeled compound, 8 h at 37°C. As to the method:
as §1, §2, §3

In data set [3] the target is T3, Recombinant soluble human NEP (Homo sapiens, UniProt P08473).
T3 construct: Recombinant soluble human NEP; purchased BioTechne, Wiesbaden, Germany
The data set is described as follows: Proteolytic stability assay against NEP. The format is in vitro ADME. To be noted: 100 ng/mL NEP, 10 μM compound, 37°C. As to the method: To assess the stability of compounds against NEP, the compounds were subjected to an in vitro assay based on the protocol described by Edelson et al. (Edelson et al., Pulmonary pharmacology & therapeutics, 2013, 26, 229-238).
Recombinant soluble human NEP (BioTechne, Wiesbaden, Germany) at a concentration of 100 ng/mL was mixed with the compound (10 μM) and a stable internal standard (10 μM) and incubated at 37° C. After several time points, samples were taken and analyzed with LC-MS.
The activity of NEP was examined using a commercially available chromogenic substrate of NEP.

The nature of data set [4]: Plasma stability assay, human plasma. As to conditions: 37°C.
The target of data set [5] is T4, CAIX-expressing human HT-29 colorectal cancer cells (Homo sapiens, UniProt Q16790).
T4 construct: CAIX-expressing human HT-29 colorectal cancer cells; host or cells: HT-29 human colorectal cancer cells
Nature of the data set: FACS binding assay (IC50 determination, competition with tracer 3BP-2776 or 3BP-4149). To be noted: 4° C., 1 hour, read-out: pIC50 category (activity) (converted). In short, it runs like this: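 HT-29 cells in FACS buffer (PBS, 1% FCS) at 500.000 cells/ml were exposed to compounds competing with a labelled tracer, with biotinylated compounds detected by 1 μg/mL APC-streptavidin for 30 min on ice. APC/Cy5 median fluorescence was read by flow cytometry and IC50 derived by 4PL fit.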
(In general: In flow cytometry, cells or beads pass a laser one at a time.)

For the next data set, the target named is T5, CAIV (hCAIV-bio) (Homo sapiens, UniProt P22748).
T5 construct: purchased SinoBliological (Sino Biological) 10472-1H081H
The data set is described as follows: SPR selectivity assay with biotinylated CAIV. Type of data set: binding. As to conditions: SPR, biotinylated CAIV; read-out: pKD category (affinity) CAIV (converted). As for the experimental part: as §4, §5

For another data set, the target named is T6, CAXIV (hCAXIV-bio) (Homo sapiens, UniProt Q9ULX7).
T6 construct: purchased SinoBliological (Sino Biological) 10458-H08H
Nature of the data set: SPR selectivity assay with biotinylated CAXIV. To be noted: SPR, biotinylated CAXIV; read-out: pKD category (affinity) CAXIV (converted). The format is binding. As to the method:
as §4, §5

The nature of data set [6]: Plasma stability assay, mouse plasma. As to conditions: mouse plasma, 37°C, 24 h.
Data set [7] concerns the target T7, human carbonic anhydrase IX (hCAIX-Fc) (Homo sapiens, UniProt Q16790).
T7 construct: purchased SinoBliological (Sino Biological) 10107-H02H
Nature of the data set: Surface plasmon resonance assay with hCAIX-Fc. Type of data set: binding. To be noted: for t1/2 category (activity): SPR dissociation half-life, hCAIX-Fc.

A short description of data set [8]: in vitro. To be noted: human, plasma.
The target of another data set is human CAIX (Homo sapiens, UniProt Q16790). Nature of the data set: Radioligand binding assay, 111In-labeled compounds, CHO-VGT cells with human CAIX. Set-up: host or cells: CHO-VGT / CHO cells. To be noted: 111In-labeled compound, Human CAIX, 8 h at 37°C; read-out: pKD category (activity) (converted). As for the experimental part:
as §1, §2, §3

Data set [9] is described as follows: in vitro. As to conditions: mouse, plasma.

T6 sequence (Q9ULX7 16-337): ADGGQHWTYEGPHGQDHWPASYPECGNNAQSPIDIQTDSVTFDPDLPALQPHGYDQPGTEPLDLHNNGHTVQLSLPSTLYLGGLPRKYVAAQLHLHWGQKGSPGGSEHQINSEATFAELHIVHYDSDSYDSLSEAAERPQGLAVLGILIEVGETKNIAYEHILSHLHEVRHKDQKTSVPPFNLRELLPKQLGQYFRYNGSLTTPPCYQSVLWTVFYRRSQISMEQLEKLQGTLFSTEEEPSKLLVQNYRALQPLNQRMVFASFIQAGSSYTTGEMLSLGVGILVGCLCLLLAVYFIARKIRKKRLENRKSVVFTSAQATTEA
T5 sequence (P22748 19-284): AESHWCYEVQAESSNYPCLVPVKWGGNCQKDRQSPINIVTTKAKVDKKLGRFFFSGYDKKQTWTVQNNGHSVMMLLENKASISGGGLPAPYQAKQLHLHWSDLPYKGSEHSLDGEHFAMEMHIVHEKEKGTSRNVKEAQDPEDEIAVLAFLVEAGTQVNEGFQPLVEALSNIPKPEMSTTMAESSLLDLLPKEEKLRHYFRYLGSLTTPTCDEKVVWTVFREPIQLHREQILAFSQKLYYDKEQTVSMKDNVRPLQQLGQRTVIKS
T2 sequence (O43570 25-354): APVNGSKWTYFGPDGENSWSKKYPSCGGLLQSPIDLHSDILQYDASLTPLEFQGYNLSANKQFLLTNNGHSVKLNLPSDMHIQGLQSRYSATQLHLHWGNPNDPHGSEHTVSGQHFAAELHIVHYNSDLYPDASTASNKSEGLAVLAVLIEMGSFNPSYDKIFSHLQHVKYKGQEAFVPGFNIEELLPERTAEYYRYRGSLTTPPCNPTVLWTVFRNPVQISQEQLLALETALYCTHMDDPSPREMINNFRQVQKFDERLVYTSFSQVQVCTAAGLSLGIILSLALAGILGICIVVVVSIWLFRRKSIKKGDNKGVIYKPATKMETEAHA
T1 sequence (Q8VHB5 32-437): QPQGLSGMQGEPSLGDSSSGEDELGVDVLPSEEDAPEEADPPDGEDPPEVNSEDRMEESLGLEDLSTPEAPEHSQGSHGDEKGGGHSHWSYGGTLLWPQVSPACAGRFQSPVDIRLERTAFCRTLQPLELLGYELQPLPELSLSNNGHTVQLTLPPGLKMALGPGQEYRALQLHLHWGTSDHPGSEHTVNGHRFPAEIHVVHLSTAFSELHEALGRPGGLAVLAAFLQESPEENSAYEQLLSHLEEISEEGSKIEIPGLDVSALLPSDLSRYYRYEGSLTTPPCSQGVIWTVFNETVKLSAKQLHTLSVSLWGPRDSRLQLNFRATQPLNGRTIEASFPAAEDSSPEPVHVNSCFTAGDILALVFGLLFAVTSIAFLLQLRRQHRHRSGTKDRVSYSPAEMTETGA
T3 sequence (P08473 52-750 limits assumed): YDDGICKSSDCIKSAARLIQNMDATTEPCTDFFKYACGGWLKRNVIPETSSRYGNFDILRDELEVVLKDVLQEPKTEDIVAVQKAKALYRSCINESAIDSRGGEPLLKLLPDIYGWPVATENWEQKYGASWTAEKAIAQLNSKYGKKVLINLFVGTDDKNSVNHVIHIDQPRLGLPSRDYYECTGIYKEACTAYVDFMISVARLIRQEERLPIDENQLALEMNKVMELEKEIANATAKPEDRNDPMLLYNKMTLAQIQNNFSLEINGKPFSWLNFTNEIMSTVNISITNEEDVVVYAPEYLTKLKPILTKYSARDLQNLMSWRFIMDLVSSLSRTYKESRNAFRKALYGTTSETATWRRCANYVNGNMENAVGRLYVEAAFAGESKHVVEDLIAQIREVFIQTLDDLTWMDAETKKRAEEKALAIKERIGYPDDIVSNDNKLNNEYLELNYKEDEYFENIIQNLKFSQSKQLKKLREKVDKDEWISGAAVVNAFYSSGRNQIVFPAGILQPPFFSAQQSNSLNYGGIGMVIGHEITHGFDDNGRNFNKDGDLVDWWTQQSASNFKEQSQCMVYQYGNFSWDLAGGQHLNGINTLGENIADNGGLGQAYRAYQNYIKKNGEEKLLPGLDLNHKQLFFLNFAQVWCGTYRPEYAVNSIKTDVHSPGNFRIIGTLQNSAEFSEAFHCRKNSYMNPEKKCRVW

With `CC(C)C[C@@H]1NC(=O)[C@H](Cc2ccc(NC(=O)CCS(N)(=O)=O)cc2)NC(=O)[C@H](CC(=O)O)NC(=O)[C@H]2CCCN2C(=O)[C@H](CCC(=O)O)NC(=O)[C@@H](NC(=O)[C@H](CCC(N)=O)NC(=O)CN2CCN(CC(=O)O)CCN(CC(=O)O)CCN(CC(=O)O)CC2)CSCc2cccc(c2)CSC[C@@H](C(N)=O)NC(=O)[C@H](CO)NC(=O)[C@H](Cc2c[nH]c3ccccc23)NC(=O)[C@H]([C@@H](C)O)NC1=O` (natLu complex, metal not drawn) [3BP-4581], the “% intact compound remaining after 24 h incubation” value in data set [1] was over 95%. The “% intact compound remaining (incubation time)” value in data set [2] was over 95%.
In the case of `CC(C)C[C@@H]1NC(=O)[C@H](Cc2c[nH]c3ccccc23)NC(=O)[C@H](CC(=O)O)NC(=O)[C@H]2CCCN2C(=O)[C@H](CCC(=O)O)NC(=O)[C@@H](NC(=O)[C@H](Cc2ccc(O)cc2)NC(=O)[C@@H](NC(=O)CN2CCC(NC(=O)CN3CCN(CC(=O)O)CCN(CC(=O)O)CCN(CC(=O)O)CC3)CC2)C(C)C)CSCc2cccc(c2)CSC[C@@H](C(N)=O)NC(=O)[C@H](CO)NC(=O)[C@H](Cc2c[nH]c3ccccc23)NC(=O)[C@H]([C@@H](C)O)NC1=O` [3BP-3583, DOTA-APAc-Val-Tyr-[Cys(3MeBn)-Glu-pro-Asp-Trp-Leu-Thr-Trp-Ser-Cys]-NH2] ({DOTA}-[X2]VYCE[dP]DWLTWSC-NH2; linker 4-13 via mXylylene), the Kd on mouse CAIX is 100 to 794 nM; at CAXII (hCAXII-bio) it was over 1000 nM; at CAIV (hCAIV-bio), over 1000 nM; on CAXIV (hCAXIV-bio), over 1000 nM. The “pKD category (activity)” value with dog CAIX was “A (pKD values >8.0)”. The entries for the “% intact compound remaining after 24 h incubation” value in data set [3] and in data set [4] were over 95% and 71%, respectively. In addition, the IC50 in data set [5] (FACS competition on HT-29 cells, Tracer ID 3BP-2776 (10 nM, biotin-labeled)) is under 10 nM. Besides, in data set [6], the “% intact compound remaining (incubation time)” value was found to be 79%. Besides, in data set [7] (25° C.), the “t1/2 category (activity)” value is on record as “A (t1/2>15.0 minutes)”.
Take `CC(C)C[C@@H]1NC(=O)[C@H](Cc2cccc(NC(=O)CCCS(N)(=O)=O)c2)NC(=O)[C@H](CC(=O)O)NC(=O)[C@H]2CCCN2C(=O)[C@H](CCC(=O)O)NC(=O)[C@@H]2CSCc3cccc(c3)CSC[C@@H](C(N)=O)NC(=O)[C@H](CNC(=O)CC[C@H](NC(=O)CN3CCN(CC(=O)O)CCN(CC(=O)O)CCN(CC(=O)O)CC3)C(=O)N2)NC(=O)[C@H](Cc2c[nH]c3ccccc23)NC(=O)[C@H]([C@@H](C)O)NC1=O` [3BP-4503, DOTA-{Glu-[Cys(3MeBn)-Glu-pro-Asp-Af3(Cpsu)-Leu-Thr-Trp-Dap}-Cys]-NH2] ({DOTA}-ECE[dP]D[Phe(3-NHCO(CH2)3SO2NH2)]LTW[Dap]C-NH2; lactam 1-10; linker 2-11 via mXylylene): the fraction remaining at 24 h, […] in “in vitro [8]” and in the data set “in vitro [9]” was over 95% each time. The Kd was under 10 nM on mouse CAIX; under 10 nM at human CAIX; over 1000 nM on CAXII (hCAXII-bio); over 1000 nM at CAIV (hCAIV-bio); over 1000 nM at CAXIV (hCAXIV-bio); under 10 nM in data set [7] (SPR, hCAIX-Fc captured, 25° C., read-out: pKD category (activity) (converted)). Besides, the “pKD category (activity)” value in the data set with dog CAIX is recorded as “A (pKD values >8.0)”. Also, in data set [5] (FACS binding assay, HT-29 cells, competition with tracer 3BP-2776 (10 nM, biotin-labeled)), the IC50 is under 10 nM. The “t1/2 category (activity)” value in data set [7] (25° C.) is “A (t1/2>15.0 minutes)”. Besides, in [7] (SPR, hCAIX), the “pKD category (affinity) CAIX” value is listed as “A (pKD values >8.0)”.
